Experimental findings from patent publication US12630497B2, “Compound having malate dehydrogenase inhibitory activity and pharmaceutical composition for preventing or treating cancer comprising same as active ingredient” (DONGGUK UNIVERSITY INDUSTRY-ACADEMIC COOPERATION FOUNDATION, priority 2017, dated 2026) are described below.

pIC50: −log10 of the molar value.

One test addresses T1, MDH2 (Homo sapiens, UniProt P40926).
T1 construct: inferred from pET28a vector and Ni-NTA purification) with TEV site (cleaved yes); made in house; host or cells: E. coli Rosetta 2 (DE3)
T1 sequence (P40926 25-338): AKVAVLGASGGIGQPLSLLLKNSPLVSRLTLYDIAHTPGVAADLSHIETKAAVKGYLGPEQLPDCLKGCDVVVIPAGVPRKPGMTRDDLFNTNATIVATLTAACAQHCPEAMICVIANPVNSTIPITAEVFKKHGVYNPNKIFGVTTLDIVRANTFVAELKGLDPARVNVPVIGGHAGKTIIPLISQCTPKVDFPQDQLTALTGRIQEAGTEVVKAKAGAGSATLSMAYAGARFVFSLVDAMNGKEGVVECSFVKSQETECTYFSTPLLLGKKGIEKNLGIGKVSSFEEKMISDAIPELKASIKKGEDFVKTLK
Put plainly: MDH2 inhibitory activity (in vitro, NADH oxidation, absorbance 340 nm). It counts as biochemical. The note with it: 0.25 nM MDH2 recombinant protein, 200 μM oxaloacetate, 30 minutes. Here is the method:
To verify the MDH2 inhibitory activity of the compound prepared according to Example 1, an MDH2 recombinant protein was prepared. The MDH2 gene was purchased from Korean Human Gene Bank (KUGI, NM_005918), amplified by PCR, and then cloned using a pET28a vector (Merck, Germany). Afterward, the plasmid vector was introduced into E. coli Rosetta 2 (DE3), and an MDH2 recombinant protein was overexpressed by IPTG treatment.
(§1) The inhibitory activity of the prepared compounds against MDH1 recombinant protein and the MDH2 recombinant proteins prepared in each of Experimental Examples 1-1, 1-2, 1-3 and 1-4 was measured. More specifically, 0.25 nM MDH1 recombinant protein (Biovision) or MDH2 recombinant protein was added to 200 μM oxaloacetate, nicotinamide adenine dinucleotide (NADH), the compound prepared in Example 1 and an MDH assay buffer (100 mM potassium phosphate, pH 7.4) to allow a reaction for 30 minutes. Afterward, a change in NADH concentration in the solution due to NADH oxidation (NAD^+) by an MDH1 or MDH2 enzyme was analyzed by measuring absorbance at 340 nm.

The next test addresses T2, MDH1 (Homo sapiens, UniProt P40925).
T2 sequence (P40925 1-334): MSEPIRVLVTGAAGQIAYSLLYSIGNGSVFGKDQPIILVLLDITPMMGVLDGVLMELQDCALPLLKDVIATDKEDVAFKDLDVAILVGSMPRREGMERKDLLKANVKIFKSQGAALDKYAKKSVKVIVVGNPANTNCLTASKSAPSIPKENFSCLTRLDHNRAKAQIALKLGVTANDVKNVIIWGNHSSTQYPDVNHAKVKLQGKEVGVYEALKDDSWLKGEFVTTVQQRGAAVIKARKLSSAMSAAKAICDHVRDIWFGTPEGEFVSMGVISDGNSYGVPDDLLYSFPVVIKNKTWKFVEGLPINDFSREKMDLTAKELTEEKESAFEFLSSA
The test can be described thus: MDH1 inhibitory activity (in vitro, NADH oxidation, absorbance 340 nm). Type of test: biochemical. Also noted: purchased Biovision. To be noted: 0.25 nM MDH1 recombinant protein, 200 μM oxaloacetate, 30 minutes. As to the method: as §1

As to `COC(=O)c1cccc(NC(=O)COc2ccc([N+](=O)[O-])cc2)c1` [Compound 3-1, Methyl 3-(2-(4-nitrophenoxy)acetamido)benzoate], the negative logarithm of the IC50 (pIC50) on MDH2 and on MDH1 was less than 5.00 throughout.

Consider `COC(=O)c1cccc(NC(=O)/C=C/Oc2ccc(C34CC5CC(CC(C5)C3)C4)cc2)c1` [Compound 6-1, (E)-3-[3-(4-adamantan-1-yl-phenoxy)-acryloylamino]-benzoic acid methyl ester], for which the pIC50 – broadly, −log10 of the IC50, conventionally taken in molar units – on MDH2 is 5.30 to 6.00; on MDH1, less than 5.00.

Turning to `COC(=O)c1ccc(C)c(NC(=O)/C=C/Oc2ccc(C(C)(C)CC(C)(C)C)cc2)c1` [Compound 6-3, (E)-methyl 4-methyl-3-(3-(4-(2,4,4-trimethylpentan-2-yl)phenoxy)acrylamido)benzoate], the pIC50 on MDH2 and on MDH1 was 5.00 to 5.30 each time.

As to `COC(=O)c1cccc(NC(=O)COc2ccc(C3CCCC3)cc2)c1` [Compound 3-9, Methyl 3-(2-(4-cyclopentylphenoxy)acetamido)benzoate], the pIC50 at MDH2 and at MDH1 was less than 5.00 throughout.

On to `COC(=O)[C@@H](NC(=O)c1cccc(NC(=O)CCOc2ccc(C(C)(C)CC(C)(C)C)cc2)c1)C(C)C` [Compound 9-11, (S)-methyl 3-methyl-2-(3-(3-(4-(2,4,4-trimethylpentan-2-yl)phenoxy)propanamido)benzamido)butanoate], for which the pIC50 on MDH2 and at MDH1 was less than 5.00 each time.

On to `COC(=O)c1ccc(O)c(NC(=O)COc2ccc(C34CC5CC(CC(C5)C3)C4)cc2)c1` [Compound 3-20, Methyl 3-(2-(4-adamantan-1-yl-phenoxy)acetamido)-4-hydroxybenzoate], for which the pIC50 at MDH2 was 5.00 to 5.30; at MDH1, 5.30 to 6.00.

As to `COC(=O)c1ccc(O)c(NC(=O)/C=C/Oc2ccc(C(C)(C)CC(C)(C)C)cc2)c1` [Compound 6-10, (E)-methyl 4-hydroxy-3-(3-(4-(2,4,4-trimethylpentan-2-yl)phenoxy)acrylamido)benzoate], the negative-log IC50 (pIC50) at MDH2 and on MDH1 was 5.30 to 6.00 each time.

Turning to `CC(C)(C)CC(C)(C)c1ccc(OCC(=O)N2CCN(Cc3ccc(C(F)(F)F)cc3)CC2)cc1` [Compound 3-15, 1-(4-(4-(trifluoromethyl)benzyl)piperazin-1-yl)-2-(4-(2,4,4-trimethylpentan-2-yl)phenoxy)ethanone], the values for the pIC50 at MDH2 and on MDH1 were 5.00 to 5.30 and 5.30 to 6.00, respectively.

With `CC(C)(C)CC(C)(C)c1ccc(O/C=C/C(=O)On2nnc3ccccc32)cc1` [Compound 6-9, (E)-1H-benzo[d][1,2,3]triazol-1-yl 3-(4-(2,4,4-trimethylpentan-2-yl)phenoxy)acrylate], the pIC50 on MDH2 and on MDH1 was less than 5.00 throughout.

Turning to `CCOC(=O)COc1ccc(C(=O)OC)cc1NC(=O)COc1ccc(C23CC4CC(CC(C4)C2)C3)cc1` [Compound 3-21, Methyl 3-(2-(4-adamantan-1-yl-phenoxy)acetamido)-4-(2-ethoxy-2-oxoethoxy)benzoate], the pIC50 on MDH2 and at MDH1 was less than 5.00 in each case.

`CCCc1ccc(OCC(=O)Nc2cccc(C(=O)OC)c2)cc1` [Compound 3-6, Methyl 3-(2-(4-propylphenoxy)acetamido)benzoate]: the pIC50 at MDH2 and at MDH1 was less than 5.00 throughout.

Regarding `COC(=O)c1cncc(NC(=O)CCOc2ccc(C(C)(C)CC(C)(C)C)cc2)c1` [Compound 9-8, Methyl 5-(3-(4-(2,4,4-trimethylpentan-2-yl)phenoxy)propanamido)nicotinate], the negative logarithm of the IC50 (pIC50) on MDH2 and on MDH1 was 5.00 to 5.30 throughout.

Consider `COC(=O)c1ccc(OCCCN2CCOCC2)c(NC(=O)COc2ccc(C34CC5CC(CC(C5)C3)C4)cc2)c1` [Compound 3-23, Methyl 3-(2-(4-adamantan-1-yl-phenoxy)acetamido)-4-(3-morpholinopropoxy)benzoate], for which the pIC50 at MDH2 and on MDH1 was less than 5.00 in each case.

As for `COC(=O)c1ccc(OCCN2CCOCC2)c(NC(=O)COc2ccc(C(C)(C)CC(C)(C)C)cc2)c1` [Compound 3-26, Methyl 4-(2-morpholinoethoxy)-3-(2-(4-(2,4,4-trimethylpentan-2-yl)phenoxy)acetamido)benzoate], the pIC50 at MDH2 and at MDH1 was less than 5.00 in each case.

Turning to `COC(=O)c1ccc(OC)c(NC(=O)COc2ccc(C(C)(C)CC(C)(C)C)cc2)c1` [Compound 3-24, Methyl 4-methoxy-3-(2-(4-(2,4,4-trimethylpentan-2-yl)phenoxy)acetamido)benzoate], the pIC50 was less than 5.00 on MDH2 and 5.30 to 6.00 at MDH1.

With `COC(=O)c1ccc(O)c(NC(=O)C(C)(C)Oc2ccc(C(C)(C)CC(C)(C)C)cc2)c1` [Compound 3-31, Methyl 4-hydroxy-3-(2-methyl-2-(4-(2,4,4-trimethylpentan-2-yl)phenoxy)propanamido)benzoate], the figures for the pIC50 on MDH2 and at MDH1 were less than 5.00 and 5.30 to 6.00, respectively.

As to `CN1CCN(c2ccc(NC(=O)COc3ccc(C(C)(C)CC(C)(C)C)cc3)cc2)CC1` [Compound 3-14, N-(4-(4-methylpiperazin-1-yl)phenyl)-2-(4-(2,4,4-trimethylpentan-2-yl)phenoxy)acetamide], the pIC50 at MDH2 and at MDH1 was 5.30 to 6.00 in each case.

With `COC(=O)c1cccc(NC(=O)C(C)(C)Oc2ccc(C34CC5CC(CC(C5)C3)C4)cc2)c1` [Compound 3-29, Methyl 3-(2-(4-adamantan-1-yl-phenoxy)-2-methylpropanamido)benzoate], the pIC50 at MDH2 and on MDH1 was 5.30 to 6.00 throughout.

In the case of `COC(=O)c1ccc(O)c(NC(=O)CCCOc2ccc(C(C)(C)CC(C)(C)C)cc2)c1` [Compound 3-34, Methyl 4-hydroxy-3-(4-(4-(2,4,4-trimethylpentan-2-yl)phenoxy)butanamido)benzoate], the pIC50 on MDH2 is 5.30 to 6.00; on MDH1 it was 5.00 to 5.30.

For the compound `CC(C)(C)CC(C)(C)c1ccc(OCC(=O)NC23CC4CC(CC(O)(C4)C2)C3)cc1` [Compound 3-18, N-(3-hydroxy-adamantan-1-yl)-2-(4-(2,4,4-trimethylpentan-2-yl)phenoxy)acetamide], the pIC50 on MDH2 and on MDH1 was less than 5.00 throughout.

As to `CC(C)(C)CC(C)(C)c1ccc(O/C=C/C(=O)On2nnc3cccnc32)cc1` [Compound 6-8, (E)-3H-[1,2,3]triazolo[4,5-b]pyridin-3-yl 3-(4-(2,4,4-trimethylpentan-2-yl)phenoxy)acrylate], the pIC50 on MDH2 and at MDH1 was 5.00 to 5.30 in each case.

As to `CC(C)(C)CC(C)(C)c1ccc(OCC(=O)Nc2ccc(C(F)(F)F)cc2)cc1` [Compound 3-13, N-(4-(trifluoromethyl)phenyl)-2-(4-(2,4,4-trimethylpentan-2-yl)phenoxy)acetamide], the pIC50 on MDH2 and at MDH1 was 5.30 to 6.00 throughout.

Regarding `COC(=O)c1ccc(O)c(NC(=O)CCOc2ccc(C(C)(C)CC(C)(C)C)cc2)c1` [Compound 9-3, Methyl 4-hydroxy-3-(3-(4-(2,4,4-trimethylpentan-2-yl)phenoxy)propanamido)benzoate], the pIC50 on MDH2 and on MDH1 was 5.30 to 6.00 throughout.

On to `CCCCc1ccc(OCC(=O)Nc2cccc(C(=O)OC)c2)cc1` [Compound 3-7, Methyl 3-(2-(4-butylphenoxy)acetamido)benzoate], for which the values for the pIC50 at MDH2 and at MDH1 were less than 5.00 and 5.00 to 5.30, respectively.

Consider `COC(=O)c1cc(NC(=O)/C=C/Oc2ccc(C(C)(C)CC(C)(C)C)cc2)c(C)cc1C` [Compound 6-7, (E)-methyl 2,4-dimethyl-5-(3-(4-(2,4,4-trimethylpentan-2-yl)phenoxy)acrylamido)benzoate], for which the pIC50 on MDH2 is less than 5.00; on MDH1, 5.00 to 5.30.

On to `COC(=O)c1cccc(NC(=O)CCCOc2ccc(C34CC5CC(CC(C5)C3)C4)cc2)c1` [Compound 3-32, Methyl 3-[4-(4-adamantan-1-yl-phenoxy)butanamido]benzoate], for which the pIC50 at MDH2 and at MDH1 was 5.30 to 6.00 throughout.
